In the assay the test system is U87MG (glioblastoma) xenograft tumors. Put plainly: U87MG glioblastoma xenograft tumor growth in nude mice. It is filed as in vivo. The following applies: for inhibition of U87MG glioblastoma xenograft tumor growth: TMZ alone, ip Day 1-5. As for the experimental part: The following human glioblastoma xenograft model may be employed to ascertain the efficacy of the formulations and methods described herein. Human glioblastoma cell U87MG are inoculated subcutaneously into female nude mice (age 4-6 wks). Xenograft tumor growth is followed by measuring the tumor size using a caliper. Once tumor size reaches about 100 mm3 (average), mice carrying the xenograft tumors are grouped and treated with different doses of the combination of TMZ and a PKC inhibitor (e.g., enzastaurin). Likewise, human glioblastoma cell U373 may be used to establish a xenograft model.
The combination of TMZ and a PKC inhibitor (e.g., enzastaurin) for treating a cell proliferative disorder was examined using a glioblastoma xenograft model. In particular, the glioblastoma model U87MG was used to evaluate the efficacy of PKC inhibitor enzataurin as a single agent compared to TMZ (Temodar®), a chemotherapeutic drug clinically approved for treating brain tumor, as a single agent. In addition, this study looked at the efficacy of the combination of TMZ with enzastaurin in comparison to the efficacy with either agent alone.
In brief, nude mice were inoculated with U87-MG glioblastoma cells and the resultant tumors treated with control, or various concentrations of TMZ, enzastaurin, or a combination of both TMZ and enzastaurin. More specifically, 150 female nude mice (strain NU/NU), aged 5-7 weeks old were purchased from Charles River Laboratory. Four million glioblastoma cells U87-MG were mixed 1:1 (volume:volume) with Matrigel (Cat. #354234, BD Biosciences) on ice and mixtures were inoculated subcutaneously to the flank of each mouse. Dosing was initiated when the tumors reached an average size of 90 mm^3. The dosing volume was 0.2 mL. Tumor size and body weight was measured two to three times per week. […] Note that there were 10 nude mice per dosing regimen.

Consider two compounds from US20070112053A1, “Pharmaceutical compositions and methods using temozolomide and a protein kinase inhibitor” (priority 2005, published 2007).

Take `Cn1nnc2c(C(N)=O)ncn2c1=O` [TMZ, 3,4-dihydro-3-methyl-4-oxoimidazo[5,1-d]-as-tetazine-8-carboxamide]: the “inhibition of U87MG glioblastoma xenograft tumor growth” value was 98% (5 mpk qd), 102% (10 mpk qd) and 103% (20 mpk qd).

Turning to `Cn1cc(C2=C(c3cn(C4CCN(Cc5ccccn5)CC4)c4ccccc34)C(=O)NC2=O)c2ccccc21` [enzastaurin], the “effect on tumor growth as single agent” value (enzastaurin alone, 37.5 or 75 mpk qd, po) is listed as “little effect on tumor growth”.
